Measured values from patent US7795246B2, “Particle-forming compositions containing fused pyrrolocarbazoles” (Cephalon, Inc., priority 1998, dated 2010).
In brackets after ≈: the same amount, converted by molar mass. Read-outs that look alike come from different tables or passages of the source. Blank lines part the entries; values can stand above or below the compound they belong to.

Tests used:
physchem = format: physicochemical
Text: Thus, dissolving the fused pyrrolocarbazole initially in this particular particle-forming composition achieves a better than 3.2-fold increase in fused pyrrolocarbazole concentration in the final solution. Because initial contact with an aqueous medium occurs in vitro or in vivo, the non-aqueous particle-forming compositions are useful for therapeutic administration of a fused pyrrolocarbazole to a mammal.

in vivo = conditions: beagle, dog, iv, 1 mg/kg
Method: An intravenous dose was included as the third formulation in the crossover design. […] The plasma concentrations, as determined by HPLC with fluorescence detection, were normalized to a 1 mg/kg dose. Pharmacokinetic parameters, including peak plasma concentration (Cmax), time to peak plasma concentration (Tmax), apparent elimination half life (t1/2), area under the curve (AUCoo) and the absolute bioavailability (F %) were determined.

[1] = tested on: rat tumor model of prostate cancer; test: Rat tumor model of prostate cancer; format: in vivo
[2] = Bioavailability in monkeys (plasma pharmacokinetics, HPLC); format: in vivo; conditions: cynomolgus monkey
Method: Pharmacokinetic parameters were measured following intravenous (i.v.) administration and oral (p.o.) administration. The test composition consisted of four male cynomolgus monkeys. The i.v. dose was administered as a bolus, at a dosage level of 3 mg/kg. The oral doses were administered as soft gelatin capsules, at a dosage level of 10 mg/kg (2 capsules/monkey/dose). The oral formulations were as described in Table 6, below.
Blood samples were collected at predetermined time points. […] Pharmacokinetic parameters were estimated by non-compartmental methods. In Table 7, Cmax is peak plasma concentration; Tmax is time to peak plasma concentration; Tt/2 is apparent elimination half-life; AUC is area under the curve; and F % is absolute bioavailability.

[3] = cited from earlier work

Structure (SMILES): CC12OC(CC1(O)CO)n1c3ccccc3c3c4c(c5c6ccccc6n2c5c31)CNC4=O (stereo not shown) [Compound IIa-12]
- solubility in water (physchem): essentially no solubility
- solubility (physchem; aqueous with cosolvent or surfactant or cyclodextrin, kinetic from dmso stock): 570 µg/mL (≈ 1300 µM)
- solubility (physchem; aqueous with cosolvent or surfactant or cyclodextrin, thermodynamic from solid): 180 µg/mL (≈ 410 µM)
- solubility (physchem; organic solvent or mixture): 28400 µg/mL (≈ 64700 µM)
- clearance (in vivo): 13.2 mL/min/kg
- half-life (in vivo): 1.16 h
- Vd (in vivo; apparent volume of distribution Vc): 0.96 L/kg
- Vd (in vivo; apparent volume of distribution Vβ): 1.35 L/kg
- anticancer activity [1]: anticancer activity

- Tt/2 ([2]; i.v. bolus 3 mg/kg, PEG 1450:Pluronic F68:hydroxypropyl-β-cyclodextrin:water): 3.0 h
- AUC(0-t) ([2]; male, plasma, iv, i.v. bolus 3 mg/kg, PEG 1450:Pluronic F68:hydroxypropyl-β-cyclodextrin:water, read-out: AUC0-4): 2500 ± 348 ng·h/mL
- clearance ([2]; male, plasma, iv, i.v. dose 3 mg/kg): 18.3 mL/min/kg
- Vd ([2]; male, plasma, iv, i.v. dose 3 mg/kg, read-out: mean volume of distribution): 4.9 ± 0.7 L/kg
Structure (SMILES): CCSCc1ccc2c(c1)c1c3c(c4c5cc(CSCC)ccc5n5c4c1n2C1CC(O)(C(=O)OC)C5(C)O1)CNC3=O (stereo not shown) [Compound IIa-51]

Structure (SMILES): COC(=O)[C@@]1(O)C[C@H]2O[C@]1(C)n1c3ccccc3c3c4c(c5c6ccccc6n2c5c31)C(=O)NC4 [Compound K-252a, K-252a]
- solubility in water [3]: insoluble

Structure (SMILES): C[C@]12O[C@H](C[C@]1(O)C(=O)O)n1c3ccccc3c3c4c(c5c6ccccc6n2c5c31)CNC4=O [Compound K-252b, K-252b]
- solubility in water [3]: insoluble

Structure (SMILES): C[C@@H]1O[C@@H](n2c3ccccc3c3c4c(c5c6ccccc6[nH]c5c32)CNC4=O)[C@H](O)[C@H](O)[C@H]1O [Compound K-252d, K-252d]
- solubility in water [3]: insoluble
